Experimental findings from US8853229B2, “Composition containing statins and omega-3 fatty acids” (Sigma-Tau Industrie Farmaceutiche Riunite S.p.A., priority 2004, dated 2014) are described below.

Molecules are shown by their SMILES.

Holding throughout (format): in vivo, mouse
Assay [1] relates to C57BL/KsJ db/db mice. In words: Blood glucose levels of db/db mice (antidiabetic activity). The note with it: for Glucose: mean ± S.E. The text has this:
Mutations in laboratory animals have made it possible to develop models that present non-insulin-dependent diabetes associated with obesity, hyperlipidaemia and insulin resistance and that enable us to test the efficacy of new antidiabetic compounds (Reed and Scribner, Diabetes, obesity and metabolism 1: 75-86, 1999).
A much used genetically diabetic mouse model is the C57BL/KsJ db/db mouse.
The genetic basis of this model is a defect in the leptin receptor gene which gives rise to leptin resistance and leads to hyperphagia, obesity, hyperinsulinaemia and insulin resistance, with subsequent symptoms of insufficient insulin secretion and hyperglycaemia (Kodama et al., Diabetologia 37: 739-744, 1994; Chen et al., Cell 84: 491-495, 1996). Since hyperglycaemia is accompanied by obesity and insulin resistance, the db/db mouse has characteristics that are close to those of type 2 diabetes in man and is useful for assaying insulin-sensitising compounds.
(§1) The C57BL/KsJ db/db mice used in the experiments were supplied by Jackson Lab (via Ch. River). After 10 days of acclimatisation in standard conditions (22±2° C.; 55±15% humidity; 15-20 air changes/hour; 12 hour light-darkness cycle with light from 7 a.m. to 7 p.m.) on a standard 4 RF21 diet (Mucedola), blood samples were taken in post-absorption conditions (fasting from 8.30 a.m. to 4.30 p.m.) from the caudal vein with the aid of a Jelco 22G catheter (Johnson and Johnson). Glucose, insulin, triglyceride, cholesterol, free fatty acid and urea levels were checked in the plasma to ensure well-matched distribution of the mice in the treatment groups.
At the start of treatment, the body weight of the animals was checked and monitoring of the animals' consumption of water and feed was scheduled.
(§2) The mice were divided into groups and treated orally twice daily with:
(§3) Omega-3 fatty acid (EPA+DHA 1:1) 200 mg/kg;
(§4) Omega-3 fatty acid (200 mg/kg)+simvastatin (100 mg/kg);
(§5) Omega-3 fatty acid (200 mg/kg)+simvastatin (100 mg/kg); Coenzyme Q10 (50 mg/kg)+resveratrol (5 mg/kg)+policosanols (hexacosanol 25 mg/kg)+pantethine (100 mg/kg+selenium (0.5 μg/kg)+zinc (2.5 mg/kg).
(§6) In the course of the experiment, serum glucose levels, glucose tolerance (OGTT), a number of lipid status variables and weight gain were monitored.

Assay [2] deals with C57BL/KsJ db/db mice. In words: Oral glucose tolerance test (OGTT) in db/db mice. As to conditions: oral twice daily for 18 days, OGTT glucose 3 g/kg, fasted 18 hours, 5 hours after last treatment. The protocol:
(§7) The C57BL/KsJ db/db mice used in the experiments were supplied by Jackson Lab (via Ch. River). […] Glucose, insulin, triglyceride, cholesterol, free fatty acid and urea levels were checked in the plasma to ensure well-matched distribution of the mice in the treatment groups.
as §2, §3, §4, §5, §6

The test system of assay [3] is C57BL/KsJ db/db mice. Description: Plasma fructosamine levels of db/db mice. The note with it: oral twice daily for 25 days, post-absorption condition, 7.30 hours after last treatment. The protocol: as §1, §2, §3, §4, §5, §6
The subject of assay [4] is C57BL/KsJ db/db mice. In words: Plasma triglyceride levels of db/db mice. The note with it: oral twice daily for 25 days, post-absorption condition, 7.30 hours after last treatment. As to the method:
as §7, §2, §3, §4, §5, §6

In assay [5] the test system is C57BL/KsJ db/db mice. Description: Plasma HDL-cholesterol levels of db/db mice. The note with it: oral twice daily for 25 days, post-absorption conditions, 7.30 hours after last treatment. As to the method:
as §1, §2, §3, §4, §5, §6

Setting [6] is: oral twice daily for 12 days, feeding condition, approx. 15 hours after last treatment.
Setting [7] is: oral twice daily for 18 days, fasted for 18 hours, 5 hours after last treatment.

As for `CCC(C)(C)C(=O)O[C@H]1C[C@@H](C)C=C2C=C[C@H](C)[C@H](CC[C@@H]3C[C@@H](O)CC(=O)O3)[C@H]21` [Simvastatin], the “% Variation (glucose) vs control” value is listed as −7.6% in the assay on C57BL/KsJ db/db mice [1] (setting [6]); 1.2% in the assay on C57BL/KsJ db/db mice [1] (oral twice daily for 12 days, post-absorption condition, 8 hours after last treatment); −5.5% in the assay on C57BL/KsJ db/db mice [1] (setting [7]). In addition, the Glucose is 450 ± 21 mg/dL in the assay on C57BL/KsJ db/db mice [1] (setting [6]); 419 ± 33 mg/dL in the assay with C57BL/KsJ db/db mice [1] (oral twice daily for 12 days, post-absorption condition (fasting 9 a.m. to 5 p.m.), 8 hours after last treatment); 325 ± 27 mg/dL with C57BL/KsJ db/db mice [1] (setting [7]). Besides, the “% Variation (AUC glucose, OGTT) vs control” value in the assay on C57BL/KsJ db/db mice [2] is reported as −5.9%. Moreover, the “AUC Glucose (OGTT)” value in the assay on C57BL/KsJ db/db mice [2] (mean ± S.E.) was 48174 ± 3555 u.a. Besides, the “% Variation (fructosamine) vs control” value in the assay with C57BL/KsJ db/db mice [3] is −2.5%. The compound also showed a Fructosamine with C57BL/KsJ db/db mice [3] (mean ± S.E.) of 0.78 ± 0.12 mM. The “Variation (triglycerides) vs control” value in the assay on C57BL/KsJ db/db mice [4] is recorded as −16.5%. The Triglycerides with C57BL/KsJ db/db mice [4] (mean ± S.E.) amounted to 79.7 ± 5.1 mg/dL. Further, the “% Variation (HDL-cholesterol) vs control” value in the assay on C57BL/KsJ db/db mice [5] was −11.7%. This compound registered an HDL-cholesterol in the assay on C57BL/KsJ db/db mice [5] (mean ± S.E.) of 72.4 ± 4.6 mg/dL.
